Experimental findings from patent publication US20120115941A1, “Compounds Affecting Glycemic Index” (SACRON INNOVATIONS PTY LIMITED, priority 2009, published 2012) are described below.

Type in all cases: biochemical
Experiment [1] addresses T1, porcine pancreatic α-amylase (Sus scrofa, UniProt P00690).
T1 sequence (P00690 16-511): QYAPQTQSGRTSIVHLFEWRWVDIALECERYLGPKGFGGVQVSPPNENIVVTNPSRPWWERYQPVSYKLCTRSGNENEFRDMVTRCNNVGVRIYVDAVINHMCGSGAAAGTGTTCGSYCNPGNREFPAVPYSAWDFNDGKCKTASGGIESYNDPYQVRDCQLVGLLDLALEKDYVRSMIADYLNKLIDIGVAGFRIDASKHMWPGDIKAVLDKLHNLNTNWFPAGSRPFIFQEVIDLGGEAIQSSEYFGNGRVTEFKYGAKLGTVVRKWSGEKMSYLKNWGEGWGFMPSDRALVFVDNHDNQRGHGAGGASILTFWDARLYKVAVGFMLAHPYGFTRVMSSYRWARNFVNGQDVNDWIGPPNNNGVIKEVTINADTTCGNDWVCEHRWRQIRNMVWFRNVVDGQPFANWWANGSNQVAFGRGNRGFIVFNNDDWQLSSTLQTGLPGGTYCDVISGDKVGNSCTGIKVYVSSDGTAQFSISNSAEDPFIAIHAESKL
As to the kind of experiment: Porcine α-amylase inhibition assay (EnzChek Ultra Amylase Assay kit). How it is done: Bakers yeast α-glucosidase [EC 3.2.1.20], and porcine pancreatic α-amylase [EC 3.2.1.1]were used during bioassay guided fractionation. Rat intestinal acetone powder was used as a source of mammalian α-glucosidase.
(§1) In each bioassay the hydrolysis product was measured using the Victor 2 multi-plate reader (Wallac, Turku, Finland) and all samples were tested in duplicate or triplicate. Non-enzyme controls were subtracted from the enzyme absorbance and the percentage inhibition of test samples was calculated as: […]
:wherein A and B are the absorbance of the hydrolysis product in the absence and presence of inhibitor, respectively. Percent inhibition values were expressed as mean±standard deviation.
Porcine α-Amylase Inhibition Assay
This assay was performed using the EnzChek® Ultra Amylase Assay kit. Samples were dissolved in DMSO and diluted with 100 mM of 3-morpholinopropanesulfonic acid (MOPS) buffer (pH 6.9) to give a final concentration of […], unless otherwise stated.

Experiment [2] relates to rat intestinal α-glucosidase. As to the kind of experiment: Mammalian α-glucosidase inhibition assay (rat intestinal acetone powder, maltose substrate). How it is done:
(§2) Bakers yeast α-glucosidase [EC 3.2.1.20], and porcine pancreatic α-amylase [EC 3.2.1.1]were used during bioassay guided fractionation. Rat intestinal acetone powder was used as a source of mammalian α-glucosidase. The EnzChek® Ultra Amylase Assay kit (E-33651) was purchased from Molecular Probes (Eugene, Oreg., USA).
as §1
(§3) :wherein A and B are the absorbance of the hydrolysis product in the absence and presence of inhibitor, respectively. Percent inhibition values were expressed as mean±standard deviation. The IC50 was the concentration required for 50% inhibition of enzyme activity under the assay conditions, and values were calculated using a four-parameter fit by Microsoft Excel Solver.
Mammalian α-Glucosidase Inhibition Assay
The α-glucosidase inhibitory activity of pure compounds was measured as described previously, with some modifications. The crude enzyme solution was prepared by suspending 50 mg of rat intestinal acetone powder in 0.9% sodium chloride solution (1.5 mL). The mixture was homogenised by sonication in ice-cold water for 10 minutes and then centrifuged at 10,000 g for 30 minutes. The resulting supernatant was used in the assay.
The substrate maltose (3 mM, 20 μL) was added to 96-well plates containing the crude α-glucosidase mixture (20 μL) and sample (10 μL). The microtitre plate was mixed on an orbital shaker for 30 seconds, incubated for 30 minutes at 37° C. and the reaction was stopped by the addition of 2 M Tris buffer (75 μL ). The glucose liberated was measured by adding 30 μL of the reaction mixture to the Glucose Hexokinase assay reagent (170 μL), which was mixed and incubated for 15 minutes at room temperature. The fluorescence of the mixture was measured at λex 340 nm, λem 470 nm.

The target of experiment [3] is Bakers yeast α-glucosidase. As to the kind of experiment: Yeast α-glucosidase inhibition assay. The procedure: as §2, §1, §3
Yeast α-Glucosidase Inhibition Assay
Extracts and fractions were dissolved in DMSO at 30 mg/mL or 10 mM for pure compounds, and diluted to working concentrations in sodium acetate buffer (pH 5.5). Final sample concentrations were 50 μg/mL, unless otherwise stated. The substrate, 4-methylumbelliferyl-α-D-glucopyranoside (84 μM, 45 μL), was added to 96-well plates containing 50 μL yeast α-glucosidase (3 mU/mL) and 5 μL of sample. The plate was mixed on an orbital shaker for 30 seconds and incubated for 20 minutes at 37° C. The reaction was stopped by the addition of 100 mM sodium-glycine buffer (100 μL, pH 10.6) and the plate was shaken for a further 30 seconds and the fluorescence intensity was measured at λex 355 nm, λem 460 nm. Fucoidan (20 μg/mL) was used as a positive inhibitor control, and sodium acetate buffer as a negative control.

Setting [4] is: porcine α-amylase, read-out: Amylase (porcine) IC50.

pIC50: −log10 of the molar value. Like-named read-outs stand apart in the source and are kept apart here.

Regarding `COc1cc(-c2cc(=O)c3c(O)cc(O)cc3o2)cc(OC)c1O` [Compound 4, Tricin, reference compound], the pIC50 in experiment [1] (Amylase (porcine) IC50, porcine α-amylase) was 3.98; in experiment [3], 4.15. For the same compound, the “Glucosidase (rat) % Inhibition at 200 μM” value in experiment [2] turned out to be 16.1%.

Take `COc1cc(C(OC)C(CO)Oc2c(OC)cc(-c3cc(=O)c4c(O)cc(O)cc4o3)cc2OC)ccc1O` (stereo not drawn) [Compound 5, tricin-4′-O-[threo-β-guaiacyl-(7″-O-methyl)-glyceryl]ether]: the pIC50 in experiment [1] (setting [4]) was 4.50; in experiment [3] it was 4.02. Besides, the “Glucosidase (rat) % Inhibition at 200 μM” value in experiment [2] turned out to be 6.1%.

Take `COc1cc(C(OC)C(CO)Oc2c(OC)cc(-c3cc(=O)c4c(O)cc(O)cc4o3)cc2OC)ccc1O` (stereo not drawn) [Compound 6, tricin-4′-O-[erythro-β-guaiacyl-(7″-O-methyl)-glyceryl]ether]: the figures for the negative logarithm of the IC50 (pIC50) in experiment [1] (setting [4]) and in experiment [3] were 4.58 and 4.14, respectively. Besides, the “Glucosidase (rat) % Inhibition at 200 μM” value in experiment [2] stood at 6.1%.

`COc1cc(C(O)C(COC(=O)C=Cc2ccc(O)cc2)Oc2c(OC)cc(-c3cc(=O)c4c(O)cc(O)cc4o3)cc2OC)ccc1O` (stereo not drawn) [Compound 7, tricin-4′-O-[erythro-β-guaiacyl-(9″-O-p-coumaroyl)-glyceryl]ether]: the pIC50 is 5.70 in experiment [1] (setting [4]) and 4.43 in experiment [3]. Further, in experiment [2] (200 µM), the “Glucosidase (rat) % Inhibition at 200 μM” value is 25.7%.

As for `COc1cc(C(O)C(COC(=O)C=Cc2ccc(O)cc2)Oc2c(OC)cc(-c3cc(=O)c4c(O)cc(O)cc4o3)cc2OC)ccc1O` (stereo not drawn) [Compound 8, tricin-4′-O-[threo-β-guaiacyl-(9″-O-p-coumaroyl)-glyceryl]ether], the results for the pIC50 in experiment [1] (setting [4]) and in experiment [3] were 6.05 and 4.42, respectively. Further, the “activity against porcine α-amylase, fold greater than acarbose” value in experiment [1] (relative to acarbose) is 130 fold. Further, the “Glucosidase (rat) % Inhibition at 200 μM” value in experiment [2] (200 µM) is reported as 10.0%.

Turning to `O=c1cc(-c2ccc(O)cc2)oc2cc(O)cc(O)c12` [Compound 18, Apigenin, reference compound], in experiment [2], the “Glucosidase (rat) % Inhibition at 200 μM” value is recorded as −12.2%. Moreover, the negative-log IC50 (pIC50) in experiment [3] is 3.96.

Regarding `O=c1cc(-c2ccc(O)c(O)c2)oc2cc(O)cc(O)c12` [Compound 19, Luteolin, reference compound], the pIC50 in experiment [1] (setting [4]) was 4.00; in experiment [3], 4.03. In experiment [2], the “Glucosidase (rat) % Inhibition at 200 μM” value was found to be 4.8%.

As to Fucoidan [reference compound], in experiment [3] (unit given in the name cell for fucoidan), the “Glucosidase (yeast) IC50” value came to 0.82 µg/mL.

For orientation: pIC50 means −log10 of the IC50, conventionally taken in molar units.
